From patent publication US8987195B2 (priority 2012, dated 2015)
Read-outs that look alike come from different tables or passages of the source.

Key:
HCV genotype 1b replicon = test: HCV replicon assay, genotype 1b replicon EC50; assay type: cell-based, Hepatitis C virus; settings: Hepatitis C virus, genotype 1b replicon, read-out: EC50 [gt-1b]
In short: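 Replicon cells (Neo^r, some luciferase:Neo^r fusion); G418 removed at plating; compound dilution series, 24-48 h. Readout: RNA by 32P-probe hybridization/protection or TaqMan, normalized to cyclophilin A RNA, or luciferase. EC50 vs DMSO control, 4-parameter fit.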

[1] = biological target: HCV NS3/4A protease genotype 1b (Hepatitis C virus genotype 1b, UniProt P26663); test: HCV NS3/4A protease time-resolved fluorescence (TRF) assay, Ki against genotype 1b; assay type: biochemical; settings: IC50 [gt-1b] (nM), NS3/4A genotype 1b, enzyme 0.2 nM
In short: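 Enzyme was pre-incubated 30 min with inhibitor in HEPES pH 7.5 buffer (150 mM NaCl, 15% glycerol, 10 mM DTT). Reaction ran 2.5 h at room temperature with 25 nM europium TRF peptide substrate, read at ex 340/em 615 nm. Enzyme levels: 0.2 nM (1b), 0.4 nM (A156T), 0.025 nM (3a). Ki came from four-parameter IC50 via IC50=Ki(1+[S]/KM).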

## COC(=O)N[C@H]1CCCCC/C=C\[C@@H]2C[C@@]2(C(=O)NS(=O)(=O)C2(C)CC2)NC(=O)[C@@H]2C[C@]3(CCc4c(c(C5CC5)nc5cc(OC)ccc45)O3)CN2C1=O [Example 139, methyl [(2R,6S,12Z,13aS,14aR,16aS)-5′-cyclopropyl-8′-methoxy-14a-{[(1-methylcyclopropyl)sulfonyl]carbamoyl}-5,16-dioxo-1,1′,2′,5,6,7,8,9,10,11,13a,14,14a,15,16,16a-hexadecahydrospiro[cyclopropa[e]pyrrolo[1,2-a][1,4]diazacyclopentadecine-2,3′-pyrano[2,3-c]quinolin]-6-yl]carbamate]
HCV genotype 1b replicon
  EC50: 8090 pM
[1]
  IC50: 0.127 nM

## COc1ccc2nc(C)c3c(c2c1)CC[C@]1(C[C@H]2C(=O)N[C@]4(C(=O)NS(=O)(=O)C5(C)CC5)C[C@H]4/C=C\CCCCC[C@H](NC(=O)OC4(C)CC4)C(=O)N2C1)O3 [Example 141, 1-methylcyclopropyl [(2R,6S,12Z,13aS,14aR,16aS)-9′-methoxy-5′-methyl-14a-{[(1-methylcyclopropyl)sulfonyl]carbamoyl}-5,16-dioxo-1,1′,2′,5,6,7,8,9,10,11,13a,14,14a,15,16,16a-hexadecahydrospiro[cyclopropa[e]pyrrolo[1,2-a][1,4]diazacyclopentadecine-2,3′-pyrano[2,3-c]quinolin]-6-yl]carbamate]
HCV genotype 1b replicon
  EC50: 1470 pM
[1]
  IC50: 0.003 nM

## COc1ccc2nc(C)c3c(c2c1)CC[C@]1(C[C@H]2C(=O)N[C@]4(C(=O)NS(=O)(=O)C5(C)CC5)C[C@H]4/C=C\CCCCC[C@H](NC(=O)OCC(C)C)C(=O)N2C1)O3 [Example 142, 2-methylpropyl [(2R,6S,12Z,13aS,14aR,16aS)-9′-methoxy-5′-methyl-14a-{[(1-methylcyclopropyl)sulfonyl]carbamoyl}-5,16-dioxo-1,1′,2′,5,6,7,8,9,10,11,13a,14,14a,15,16,16a-hexadecahydrospiro[cyclopropa[e]pyrrolo[1,2-a][1,4]diazacyclopentadecine-2,3′-pyrano[2,3-c]quinolin]-6-yl]carbamate]
HCV genotype 1b replicon
  EC50: 1140 pM
[1]
  IC50: 0.004 nM

## Cc1nc2ccccc2c2c1O[C@]1(CC2)C[C@H]2C(=O)N[C@]3(C(=O)NS(=O)(=O)C4(C)CC4)C[C@H]3/C=C\CCCCC[C@H](NC(=O)OC3CCCCC3)C(=O)N2C1 [Example 143, cyclohexyl [(2R,6S,12Z,13aS,14aR,16aS)-5′-methyl-14a-{[(1-methylcyclopropyl)sulfonyl]carbamoyl}-5,16-dioxo-1,1′,2′,5,6,7,8,9,10,11,13a,14,14a,15,16,16a-hexadecahydrospiro[cyclopropa[e]pyrrolo[1,2-a][1,4]diazacyclopentadecine-2,3′-pyrano[2,3-c]quinolin]-6-yl]carbamate]
HCV genotype 1b replicon; K+ salt
  EC50: 1180 pM
[1]; K+ salt
  IC50: 0.009 nM

## CC(C)COC(=O)N[C@H]1CCCCC/C=C\[C@@H]2C[C@@]2(C(=O)NS(=O)(=O)C2(C)CC2)NC(=O)[C@@H]2C[C@]3(CCc4c(c(C5CC5)nc5ccc(F)cc45)O3)CN2C1=O [Example 144, 2-methylpropyl [(2R,6S,12Z,13aS,14aR,16aS)-5′-cyclopropyl-9′-fluoro-14a-{[(1-methylcyclopropyl)sulfonyl]carbamoyl}-5,16-dioxo-1,1′,2′,5,6,7,8,9,10,11,13a,14,14a,15,16,16a-hexadecahydrospiro[cyclopropa[e]pyrrolo[1,2-a][1,4]diazacyclopentadecine-2,3′-pyrano[2,3-c]quinolin]-6-yl]carbamate]
HCV genotype 1b replicon
  EC50: 1020 pM
[1]
  IC50: 0.007 nM

## CC1(S(=O)(=O)NC(=O)[C@@]23C[C@H]2/C=C\CCCCC[C@H](NC(=O)OC2CCCC2)C(=O)N2C[C@@]4(CCc5c(c(C6CC6)nc6ccc(F)cc56)O4)C[C@H]2C(=O)N3)CC1 [Example 145, cyclopentyl [(2R,6S,12Z,13aS,14aR,16aS)-5′-cyclopropyl-9′-fluoro-14a-{[(1-methylcyclopropyl)sulfonyl]carbamoyl}-5,16-dioxo-1,1′,2′,5,6,7,8,9,10,11,13a,14,14a,15,16,16a-hexadecahydrospiro[cyclopropa[e]pyrrolo[1,2-a][1,4]diazacyclopentadecine-2,3′-pyrano[2,3-c]quinolin]-6-yl]carbamate]
HCV genotype 1b replicon
  EC50: 1160 pM
[1]
  IC50: 0.006 nM

## Cc1nc2ccc(OC(F)(F)F)cc2c2c1O[C@]1(CC2)C[C@H]2C(=O)N[C@]3(C(=O)NS(=O)(=O)C4(C)CC4)C[C@H]3/C=C\CCCCC[C@H](NC(=O)OCC3CCCC3)C(=O)N2C1 [Example 146, cyclopentylmethyl [(2R,6S,12Z,13aS,14aR,16aS)-5′-methyl-14a-{[(1-methylcyclopropyl)sulfonyl]carbamoyl}-5,16-dioxo-9′-(trifluoromethoxy)-1,1′,2′,5,6,7,8,9,10,11,13a,14,14a,15,16,16a-hexadecahydrospiro[cyclopropa[e]pyrrolo[1,2-a][1,4]diazacyclopentadecine-2,3′-pyrano[2,3-c]quinolin]-6-yl]carbamate]
HCV genotype 1b replicon
  EC50: 11800 pM
[1]
  IC50: 0.03 nM

## Cc1nc2c(F)cccc2c2c1O[C@]1(CC2)C[C@H]2C(=O)N[C@]3(C(=O)NS(=O)(=O)C4(C)CC4)C[C@H]3/C=C\CCCCC[C@H](NC(=O)OCC(C)C)C(=O)N2C1 [Example 147, 2-methylpropyl [(2R,6S,12Z,13aS,14aR,16aS)-7′-fluoro-5′-methyl-14a-{[(1-methylcyclopropyl)sulfonyl]carbamoyl}-5,16-dioxo-1,1′,2′,5,6,7,8,9,10,11,13a,14,14a,15,16,16a-hexadecahydrospiro[cyclopropa[e]pyrrolo[1,2-a][1,4]diazacyclopentadecine-2,3′-pyrano[2,3-c]quinolin]-6-yl]carbamate]
HCV genotype 1b replicon
  EC50: 1050 pM
[1]
  IC50: 0.01 nM

## CC1(S(=O)(=O)NC(=O)[C@@]23C[C@H]2/C=C\CCCCC[C@H](NC(=O)OC2CCCC2)C(=O)N2C[C@@]4(CCc5c(c(C(F)(F)F)nc6ccccc56)O4)C[C@H]2C(=O)N3)CC1 [Example 148, cyclopentyl [(2R,6S,12Z,13aS,14aR,16aS)-14a-{[(1-methylcyclopropyl)sulfonyl]carbamoyl}-5,16-dioxo-5′-(trifluoromethyl)-1,1′,2′,5,6,7,8,9,10,11,13a,14,14a,15,16,16a-hexadecahydrospiro[cyclopropa[e]pyrrolo[1,2-a][1,4]diazacyclopentadecine-2,3′-pyrano[2,3-c]quinolin]-6-yl]carbamate]
HCV genotype 1b replicon; K+ salt
  EC50: 195 pM
[1]; K+ salt
  IC50: 0.011 nM

## Cc1nc2ccccc2c2c1O[C@@]1(C[C@H]3C(=O)N[C@]4(C(=O)NS(=O)(=O)C5(C)CC5)C[C@H]4/C=C\CCCCC[C@H](NC(=O)OC4CCCC4)C(=O)N3C1)CC2(F)F [Example 149, cyclopentyl [(2S,6S,12Z,13aS,14aR,16aS)-1′,1′-difluoro-5′-methyl-14a-{[(1-methylcyclopropyl)sulfonyl]carbamoyl}-5,16-dioxo-1,1′,2′,5,6,7,8,9,10,11,13a,14,14a,15,16,16a-hexadecahydrospiro[cyclopropa[e]pyrrolo[1,2-a][1,4]diazacyclopentadecine-2,3′-pyrano[2,3-c]quinolin]-6-yl]carbamate]
HCV genotype 1b replicon
  EC50: 195 pM
[1]
  IC50: 0.022 nM

## CC1(S(=O)(=O)NC(=O)[C@@]23C[C@H]2/C=C\CCCCC[C@H](NC(=O)OC2CCCC2)C(=O)N2C[C@@]4(CCc5c(c(C6CC6)nc6c(F)cccc56)O4)C[C@H]2C(=O)N3)CC1 [Example 150, cyclopentyl [(2R,6S,12Z,13aS,14aR,16aS)-5′-cyclopropyl-7′-fluoro-14a-{[(1-methylcyclopropyl)sulfonyl]carbamoyl}-5,16-dioxo-1,1′,2′,5,6,7,8,9,10,11,13a,14,14a,15,16,16a-hexadecahydrospiro[cyclopropa[e]pyrrolo[1,2-a][1,4]diazacyclopentadecine-2,3′-pyrano[2,3-c]quinolin]-6-yl]carbamate]
HCV genotype 1b replicon
  EC50: 195 pM
[1]
  IC50: 0.013 nM

## CC(C)COC(=O)N[C@H]1CCCCC/C=C\[C@@H]2C[C@@]2(C(=O)NS(=O)(=O)C2(C)CC2)NC(=O)[C@@H]2C[C@]3(CCc4c(c(C5CC5)nc5c(F)cccc45)O3)CN2C1=O [Example 151, 2-methylpropyl [(2R,6S,12Z,13aS,14aR,16aS)-5′-cyclopropyl-7′-fluoro-14a-{[(1-methylcyclopropyl)sulfonyl]carbamoyl}-5,16-dioxo-1,1′,2′,5,6,7,8,9,10,11,13a,14,14a,15,16,16a-hexadecahydrospiro[cyclopropa[e]pyrrolo[1,2-a][1,4]diazacyclopentadecine-2,3′-pyrano[2,3-c]quinolin]-6-yl]carbamate]
HCV genotype 1b replicon; K+ salt
  EC50: 1770 pM
[1]; K+ salt
  IC50: 0.014 nM

## COc1ccc2nc(C3CC3)c3c(c2c1)CC[C@]1(C[C@H]2C(=O)N[C@]4(C(=O)NS(=O)(=O)C5(C)CC5)C[C@H]4/C=C\CCCCC[C@H](NC(=O)OC4(C)CCC4)C(=O)N2C1)O3 [Example 152, 1-methylcyclobutyl [(2R,6S,12Z,13aS,14aR,16aS)-5′-cyclopropyl-9′-methoxy-14a-{[(1-methylcyclopropyl)sulfonyl]carbamoyl}-5,16-dioxo-1,1′,2′,5,6,7,8,9,10,11,13a,14,14a,15,16,16a-hexadecahydrospiro[cyclopropa[e]pyrrolo[1,2-a][1,4]diazacyclopentadecine-2,3′-pyrano[2,3-c]quinolin]-6-yl]carbamate]
HCV genotype 1b replicon; K+ salt
  EC50: 729 pM
[1]; K+ salt
  IC50: 0.014 nM
